Assay results as given in ChEMBL document CHEMBL1149945, “Synthesis and structure-activity relationships of potent retinoid X receptor ligands” (Bioorg Med Chem Lett, 1997).

Legend:
[1] = biological target: T1, Retinoic acid receptor RXR-beta (Mus musculus, UniProt P28704); assay: Effective potency in transcriptional activation assay in CV-1 cells expressing Retinoid X receptor RXR beta; assay type: functional, cell-based
T1 sequence (P28704 whole entry): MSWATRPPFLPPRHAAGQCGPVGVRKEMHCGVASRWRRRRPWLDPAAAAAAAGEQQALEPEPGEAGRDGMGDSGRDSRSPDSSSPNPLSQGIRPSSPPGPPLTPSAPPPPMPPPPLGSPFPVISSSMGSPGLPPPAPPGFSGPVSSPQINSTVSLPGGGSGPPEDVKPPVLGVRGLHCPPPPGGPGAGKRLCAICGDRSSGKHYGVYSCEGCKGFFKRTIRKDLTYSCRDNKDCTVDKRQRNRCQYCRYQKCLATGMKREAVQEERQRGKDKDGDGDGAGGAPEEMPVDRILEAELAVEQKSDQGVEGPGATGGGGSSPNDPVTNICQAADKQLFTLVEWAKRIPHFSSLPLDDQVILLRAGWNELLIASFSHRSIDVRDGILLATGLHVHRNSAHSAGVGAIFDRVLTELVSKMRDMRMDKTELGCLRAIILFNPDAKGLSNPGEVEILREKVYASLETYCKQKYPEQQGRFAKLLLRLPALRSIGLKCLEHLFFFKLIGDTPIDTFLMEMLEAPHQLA

[2] = biological target: T2, Retinoic acid receptor alpha (Homo sapiens, UniProt P10276); assay: Inhibition of [3H]ATRA binding to retinoic acid receptor RAR alpha
T2 sequence (P10276 whole entry): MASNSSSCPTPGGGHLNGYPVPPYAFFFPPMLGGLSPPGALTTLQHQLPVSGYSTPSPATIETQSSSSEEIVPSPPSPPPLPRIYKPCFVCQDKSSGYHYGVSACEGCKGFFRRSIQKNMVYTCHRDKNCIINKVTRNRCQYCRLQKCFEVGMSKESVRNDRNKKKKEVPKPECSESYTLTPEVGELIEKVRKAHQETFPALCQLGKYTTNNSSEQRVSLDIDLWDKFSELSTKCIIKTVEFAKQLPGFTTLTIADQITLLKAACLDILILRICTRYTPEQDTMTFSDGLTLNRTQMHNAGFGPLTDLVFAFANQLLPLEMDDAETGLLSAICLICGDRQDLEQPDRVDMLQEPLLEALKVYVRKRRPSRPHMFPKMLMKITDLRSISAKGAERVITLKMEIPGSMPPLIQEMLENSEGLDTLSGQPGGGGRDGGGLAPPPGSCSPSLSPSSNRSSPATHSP

[3] = biological target: T2, Retinoic acid receptor alpha; assay: Effective potency in transcriptional activation assay in CV-1 cells expressing retinoic acid receptor RAR alpha; Not active; assay type: functional, cell-based
[4] = biological target: T3, Retinoic acid receptor RXR-gamma (Mus musculus, UniProt P28705); assay: Inhibition of [3H]9-cis-RA binding to Retinoid X receptor RXR gamma
T3 sequence (P28705 whole entry): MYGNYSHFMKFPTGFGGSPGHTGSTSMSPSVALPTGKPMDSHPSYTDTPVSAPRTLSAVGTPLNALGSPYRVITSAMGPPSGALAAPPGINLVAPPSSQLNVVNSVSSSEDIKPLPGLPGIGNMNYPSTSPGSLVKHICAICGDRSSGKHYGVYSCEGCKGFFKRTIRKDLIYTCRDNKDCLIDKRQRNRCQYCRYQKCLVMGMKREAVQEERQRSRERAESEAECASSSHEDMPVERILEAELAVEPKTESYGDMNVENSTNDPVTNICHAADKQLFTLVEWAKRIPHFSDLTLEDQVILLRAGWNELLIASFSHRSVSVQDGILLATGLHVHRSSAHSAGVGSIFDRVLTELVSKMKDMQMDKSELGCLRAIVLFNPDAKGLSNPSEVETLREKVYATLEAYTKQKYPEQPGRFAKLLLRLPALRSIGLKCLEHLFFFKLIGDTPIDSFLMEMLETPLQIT

[5] = biological target: T4, Retinoic acid receptor gamma (Homo sapiens, UniProt P13631); assay: Inhibition of [3H]-ATRA binding to Retinoic acid receptor RAR gamma
T4 sequence (P13631 whole entry): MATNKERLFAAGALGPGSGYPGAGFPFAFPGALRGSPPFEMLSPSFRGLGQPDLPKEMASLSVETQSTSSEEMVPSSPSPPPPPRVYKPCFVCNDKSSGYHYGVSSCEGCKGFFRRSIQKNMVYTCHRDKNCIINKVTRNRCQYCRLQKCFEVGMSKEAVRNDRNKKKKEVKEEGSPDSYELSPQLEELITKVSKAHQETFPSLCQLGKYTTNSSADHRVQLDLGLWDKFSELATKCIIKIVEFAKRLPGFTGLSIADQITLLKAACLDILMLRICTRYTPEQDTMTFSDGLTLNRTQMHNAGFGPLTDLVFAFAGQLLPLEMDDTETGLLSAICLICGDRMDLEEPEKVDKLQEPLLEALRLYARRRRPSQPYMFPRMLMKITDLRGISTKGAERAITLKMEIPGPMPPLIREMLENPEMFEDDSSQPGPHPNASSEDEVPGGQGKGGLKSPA

[6] = biological target: T4, Retinoic acid receptor gamma; assay: Effective potency in transcriptional activation assay in CV-1 cells expressing retinoic acid receptor RAR gamma; assay type: functional, cell-based
[7] = biological target: T5, Retinoic acid receptor RXR-beta (Mus musculus) (UniProt P28704); assay: Percent efficacy for Retinoid X receptor RXR beta in CV-1 cell transcriptional activation assay; assay type: functional, cell-based
T5 sequence (whole entry): T1 sequence (P28704 whole entry)

[8] = biological target: T6, Retinoic acid receptor beta (Homo sapiens, UniProt P10826); assay: Inhibition of [3H]ATRA binding to retinoic acid receptor RAR beta
T6 sequence (P10826 whole entry): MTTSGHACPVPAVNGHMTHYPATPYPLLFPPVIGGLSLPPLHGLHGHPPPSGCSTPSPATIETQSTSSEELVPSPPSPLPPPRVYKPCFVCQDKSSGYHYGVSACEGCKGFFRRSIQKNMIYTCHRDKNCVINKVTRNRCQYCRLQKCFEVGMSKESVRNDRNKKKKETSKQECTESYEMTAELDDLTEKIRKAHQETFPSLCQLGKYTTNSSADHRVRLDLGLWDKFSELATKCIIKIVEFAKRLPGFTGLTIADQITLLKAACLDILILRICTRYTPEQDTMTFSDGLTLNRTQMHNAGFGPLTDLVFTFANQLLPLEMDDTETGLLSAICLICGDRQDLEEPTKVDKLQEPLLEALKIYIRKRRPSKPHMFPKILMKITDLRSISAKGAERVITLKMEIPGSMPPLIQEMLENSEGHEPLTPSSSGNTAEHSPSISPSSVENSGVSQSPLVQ

[9] = biological target: T1, Retinoic acid receptor RXR-beta; assay: Inhibition of [3H]9-cis-RA binding to Retinoid X receptor RXR beta
[10] = biological target: T7, Retinoic acid receptor RXR-alpha (Homo sapiens, UniProt P19793); assay: Inhibition of [3H]9-cis-RA binding to Retinoid X receptor RXR alpha
T7 sequence (P19793 whole entry): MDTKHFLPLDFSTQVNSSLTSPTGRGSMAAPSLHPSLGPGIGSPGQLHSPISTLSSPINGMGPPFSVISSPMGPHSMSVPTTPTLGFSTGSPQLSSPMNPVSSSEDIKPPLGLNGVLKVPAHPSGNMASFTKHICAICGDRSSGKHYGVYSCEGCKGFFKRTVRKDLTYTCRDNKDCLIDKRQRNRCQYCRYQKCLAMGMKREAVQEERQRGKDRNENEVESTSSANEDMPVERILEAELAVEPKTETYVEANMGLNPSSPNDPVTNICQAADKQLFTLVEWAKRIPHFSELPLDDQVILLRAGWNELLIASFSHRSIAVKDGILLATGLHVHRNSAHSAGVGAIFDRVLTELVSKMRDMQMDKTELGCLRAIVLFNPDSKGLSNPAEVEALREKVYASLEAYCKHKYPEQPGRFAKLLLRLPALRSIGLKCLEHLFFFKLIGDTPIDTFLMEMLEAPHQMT

[11] = biological target: T6, Retinoic acid receptor beta; assay: Effective potency in transcriptional activation assay in CV-1 cells expressing retinoic acid receptor RAR beta; assay type: functional, cell-based
[12] = biological target: T8, Retinoic acid receptor RXR-gamma (Mus musculus) (UniProt P28705); assay: Percent efficacy for Retinoid X receptor RXR gamma in CV-1 cell transcriptional activation assay; assay type: cell-based
T8 sequence (whole entry): T3 sequence (P28705 whole entry)

[13] = biological target: T7, Retinoic acid receptor RXR-alpha; assay: Effective potency in transcriptional activation assay in CV-1 cells expressing Retinoid X receptor RXR alpha; assay type: functional, cell-based
[14] = biological target: T3, Retinoic acid receptor RXR-gamma; assay: (§1) Effective potency in transcriptional activation assay in CV-1 cells expressing Retinoid X receptor RXR gamma; assay type: cell-based
[15] = biological target: T4, Retinoic acid receptor gamma; settings: cv-1
[16] = biological target: T6, Retinoic acid receptor beta; settings: cv-1
[17] = biological target: T3, Retinoic acid receptor RXR-gamma; assay: as §1; assay type: functional, cell-based

| EC50 [1] | Ki [2] | EC50 [3] | Ki [4] | Ki [5] | EC50 [6] | Efficacy [7] | Ki [8] | Ki [9] | Ki [10] | EC50 [11] | Efficacy [12] | EC50 [13] | EC50 [14] | EC50 [15] | EC50 [16] | EC50 [17] | Structure (SMILES) |
| --- | --- | --- | --- | --- | --- | --- | --- | --- | --- | --- | --- | --- | --- | --- | --- | --- | --- |
| 222 nM | > 1000 nM | Not Active | 54 nM | > 1000 nM | 355 nM | 169% | > 1000 nM | 252 nM | 38 nM | 559 nM | 99% | 189 nM | 212 nM | – | – | – | C=C1C[C@H](c2ccc3c(c2)C(C)(C)CCC3(C)C)[C@@H](/C=C/C(C)=C/C(=O)O)C1 |
| 62 nM | > 1000 nM | Not Active | 7 nM | > 1000 nM | – | 50% | > 1000 nM | 10 nM | 4 nM | – | 38% | 62 nM | 44 nM | Not Active | Not Active | – | CC(/C=C/[C@]1(C)CCCC1c1ccc2c(c1)C(C)(C)CCC2(C)C)=C\C(=O)O (single isomer, unassigned) |
| – | – | – | – | – | – | – | – | – | – | – | 85% | – | – | – | – | – | C=C(c1ccc(C(=O)O)cc1)c1cc2c(cc1C)C(C)(C)CCC2(C)C |
| 14 nM | > 1000 nM | Not Active | 7 nM | > 1000 nM | 1780 nM | 110% | > 1000 nM | 10 nM | 4 nM | 809 nM | 72% | 7 nM | 16 nM | – | – | – | CC(/C=C/[C@@]1(C)CCCC1c1ccc2c(c1)C(C)(C)CCC2(C)C)=C\C(=O)O (single isomer, unassigned) |
| 42 nM | > 1000 nM | Not Active | 58 nM | > 1000 nM | 1150 nM | 70% | > 1000 nM | 36 nM | 20 nM | 339 nM | 62% | 53 nM | 40 nM | – | – | – | CC(/C=C/C1=C(c2ccc3c(c2)C(C)(C)CCC3(C)C)CCC1)=C\C(=O)O |
| 3 nM | > 1000 nM | Not Active | 5 nM | > 1000 nM | 209 nM | 92% | > 1000 nM | 10 nM | 3 nM | – | 77% | 4 nM | 3 nM | – | Not Active | – | CC(/C=C/[C@]12CCC[C@@]1(c1ccc3c(c1)C(C)(C)CCC3(C)C)C2)=C\C(=O)O |
| 29 nM | > 1000 nM | Not Active | 26 nM | > 1000 nM | – | 101% | > 1000 nM | 11 nM | 15 nM | – | 58% | 31 nM | 25 nM | Not Active | Not Active | – | CC(/C=C/[C@@H]1CCC[C@@H]1c1ccc2c(c1)C(C)(C)CCC2(C)C)=C\C(=O)O |
| 10 nM | > 1000 nM | Not Active | 5 nM | > 1000 nM | 1290 nM | 110% | > 1000 nM | 6 nM | 3 nM | 637 nM | 70% | 8 nM | 6 nM | – | – | – | CC(/C=C/[C@H]1CCC[C@@H]1c1ccc2c(c1)C(C)(C)CCC2(C)C)=C\C(=O)O |
| 191 nM | > 1000 nM | Not Active | 22 nM | > 1000 nM | – | 44% | > 1000 nM | 25 nM | 5 nM | – | 42% | 95 nM | 128 nM | Not Active | Not Active | – | CC(/C=C/C1=C(c2cc3c(cc2C)C(C)(C)CCC3(C)C)CCC1)=C\C(=O)O |
| 220 nM | > 1000 nM | Not Active | 161 nM | > 1000 nM | – | 369% | > 1000 nM | 556 nM | 66 nM | – | 90% | 169 nM | – | Not Active | Not Active | 204 nM | C=C1C[C@@H](/C=C/C(C)=C/C(=O)O)[C@@H](c2ccc3c(c2)C(C)(C)CCC3(C)C)C1 |
